The test deals with CFTR-mediated chloride transport (Homo sapiens, UniProt P13569). Description: Corrector Assay A - membrane potential dye assay (enteroid cells). Particulars: for Corrector Assay A % activity: % of chloride transport of triple combination control (1 μM (14S)-dispiro macrocycle + 3 μM tezacaftor + 300 nM ivacaftor); for EC50: read-out: Corrector Assay A EC50, human intestinal enteroid cells, 18-24 h incubation, acute 10 μM forskolin + 300 nM ivacaftor.

Usually EC50 stands for the concentration needed to bring the measured effect to its halfway point.

Regarding `CC(C)(C)c1ccc2c(n1)N1C[C@@H](CC[C@H](c3cccc(CCN)n3)Nc3cccc(n3)S(=O)(=O)NC2=O)CC1(C)C` [Compound 104], the “Corrector Assay A % activity” value is “++ (++ is 30-60%)” and the EC50 was less than 1000 nM.
On the same counts, the results for `CC(O)CC1CC[C@@H]2CN(c3nc(C(C)(C)C)ccc3C(=O)NS(=O)(=O)c3cccc(n3)N1)C(C)(C)C2` (single isomer, unassigned) [Compound 22] are “++ (++ is 30-60%)” and less than 1000 nM.
On the same counts, the results for `CC(C)O[C@H]1C[C@@H](Oc2ccc3c(n2)N2C[C@@H](CC[C@@H](c4ccccn4)Nc4cccc(n4)S(=O)(=O)NC3=O)CC2(C)C)C1` [Compound 162] are “++ (++ is 30-60%)” and less than 1000 nM.
With `CC(C)(C)c1ccc2c(n1)N1C[C@@H](CCC(c3ccc(N4CCC4)cn3)Nc3cccc(n3)S(=O)(=O)NC2=O)CC1(C)C` (stereo partly drawn) [Compound 175], the “Corrector Assay A % activity” value is “+++ (+++ is >60%)” and the EC50 was less than 1000 nM.
On the same counts, the results for `CC(C)(C)c1ccc2c(n1)N1C[C@@H](CCC(c3cc(N)ccn3)Nc3cccc(n3)S(=O)(=O)NC2=O)CC1(C)C` (single isomer, unassigned) [Compound 49] are “++ (++ is 30-60%)” and less than 1000 nM.
Regarding `CC(C)(O)/C=C/CC1CC[C@@H]2CN(c3nc(C(C)(C)C)ccc3C(=O)NS(=O)(=O)c3cccc(n3)N1)C(C)(C)C2` (single isomer, unassigned) [Compound 23], the “Corrector Assay A % activity” value was “+++ (+++ is >60%)” and the EC50 was less than 1000 nM.
On the same counts, the results for `CC(C)(C)c1ccnc([C@H]2CC[C@@H]3CN(c4nc(-c5cccc(OCCC6CC6)n5)ccc4C(=O)NS(=O)(=O)c4cccc(n4)N2)C(C)(C)C3)c1` [Compound 301, (14S,17R)-17-(4-tert-butylpyridin-2-yl)-8-[6-(2-cyclopropylethoxy)pyridin-2-yl]-12,12-dimethyl-2λ^6-thia-3,9,11,18,23-pentaazatetracyclo[17.3.1.111,14.05,10]tetracosa-1(22),5,7,9,19(23),20-hexaene-2,2,4-trione] are “+++ (+++ is >60%)” and less than 1000 nM.
Take `COC(=O)NCc1ccc(C2CC[C@@H]3CN(c4nc(C(C)(C)C)ccc4C(=O)NS(=O)(=O)c4cccc(n4)N2)C(C)(C)C3)nc1` (stereo partly drawn) [Compound 88]: the “Corrector Assay A % activity” value is reported as “+++ (+++ is >60%)” and the EC50 is less than 1000 nM.
With `CC(C)(C)c1ccc2c(n1)N1C[C@@H](CCC(c3ccc(C#N)cn3)Nc3cccc(n3)S(=O)(=O)NC2=O)CC1(C)C` (single isomer, unassigned) [Compound 205], the “Corrector Assay A % activity” value is “+++ (+++ is >60%)” and the EC50 was less than 1000 nM.
For the compound `CC(C)(C)c1ccc([C@@H]2CC[C@@H]3CN(c4nc(C(C)(C)C)ccc4C(=O)NS(=O)(=O)c4cccc(n4)N2)C(C)(C)C3)cc1` (single isomer, unassigned) [Compound 37], the “Corrector Assay A % activity” value is on record as “++ (++ is 30-60%)” and the EC50 was less than 1000 nM.
Regarding `CC1(C)C[C@@H]2CC[C@H](c3ccccn3)Nc3cccc(n3)S(=O)(=O)NC(=O)c3ccc(-n4ccc(OCC5CC5)n4)nc3N1C2` [Compound 334], the “Corrector Assay A % activity” value is reported as “+++ (+++ is >60%)” and the EC50 is less than 1000 nM.
Take `CC(C)COc1cc(F)cc(-c2ccc3c(n2)N2C[C@@H](CCC(c4ccccn4)Nc4cccc(n4)S(=O)(=O)NC3=O)CC2(C)C)c1` (single isomer, unassigned) [Compound 352]: the “Corrector Assay A % activity” value was “++ (++ is 30-60%)” and the EC50 is less than 1000 nM.
On the same counts, the results for `CC(C)(C)c1cccc(C2CC[C@@H]3CN(c4nc(C(C)(C)C)ccc4C(=O)NS(=O)(=O)c4cccc(n4)N2)C(C)(C)C3)c1` (single isomer, unassigned) [Compound 40] are “++ (++ is 30-60%)” and less than 1000 nM.
In the case of `CC(C)n1cc(-c2ccc3c(n2)N2C[C@@H](CC[C@H](c4ccccn4)Nc4cccc(n4)S(=O)(=O)NC3=O)CC2(C)C)cn1` [Compound 346], the “Corrector Assay A % activity” value was “++ (++ is 30-60%)” and the EC50 was less than 1000 nM.
In the case of `CC(C)(C)c1ccc2c(n1)N1C[C@@H](CCC(c3ccc(Cl)cn3)Nc3cccc(n3)S(=O)(=O)NC2=O)CC1(C)C` (single isomer, unassigned) [Compound 208], the “Corrector Assay A % activity” value is “+++ (+++ is >60%)” and the EC50 was less than 1000 nM.
Turning to `COCCc1ccc(C2CC[C@@H]3CN(c4nc(C(C)(C)C)ccc4C(=O)NS(=O)(=O)c4cccc(n4)N2)C(C)(C)C3)nc1` (stereo partly drawn) [Compound 111], the “Corrector Assay A % activity” value is recorded as “++ (++ is 30-60%)” and the EC50 was less than 1000 nM.
For `CC(C)(C)c1ccc2c(n1)N1C[C@@H](CCC(c3ccc(C4CNC4)cn3)Nc3cccc(n3)S(=O)(=O)NC2=O)CC1(C)C` (stereo partly drawn) [Compound 165] the same measures were “++ (++ is 30-60%)” and less than 1000 nM.
Regarding `CN1c2cccc(n2)S(=O)(=O)NC(=O)c2ccc(C(C)(C)C)nc2N2C[C@@H](CC[C@H]1c1ccccc1)CC2(C)C` [Compound 262], the “Corrector Assay A % activity” value is listed as “+++ (+++ is >60%)” and the EC50 is less than 1000 nM.
For `CC(C)(C)CCOc1cccc(-c2ccc3c(n2)N2C[C@@H](CC[C@H](c4cccc(C(F)(F)F)n4)Nc4cccc(n4)S(=O)(=O)NC3=O)CC2(C)C)n1` [Compound 304, (14S,17R)-8-[6-(3,3-dimethylbutoxy)pyridin-2-yl]-12,12-dimethyl-17-[6-(trifluoromethyl)pyridin-2-yl]-2λ^6-thia-3,9,11,18,23-pentaazatetracyclo[17.3.1.111,14.05,10]tetracosa-1(22),5,7,9,19(23),20-hexaene-2,2,4-trione] the same measures were “++ (++ is 30-60%)” and less than 1000 nM.
On the same counts, the results for `CC(C)(C)c1ccc2c(n1)N1C[C@@H](CC[C@@H](C3CCOCC3)Nc3cccc(n3)S(=O)(=O)NC2=O)CC1(C)C` (single isomer, unassigned) [Compound 269] are “++ (++ is 30-60%)” and less than 1000 nM.
In the case of `CC1(C)C[C@@H]2CC[C@@H](c3ccccn3)Nc3cccc(n3)S(=O)(=O)NC(=O)c3ccc(-c4c(Cl)cccc4Cl)nc3N1C2` [Compound 342], the “Corrector Assay A % activity” value is reported as “++ (++ is 30-60%)” and the EC50 is less than 1000 nM.
For `CC(C)(C)c1ccc2c(n1)N1C[C@@H](CCC(CC(O)CO)Nc3cccc(n3)S(=O)(=O)NC2=O)CC1(C)C` (single isomer, unassigned) [Compound 33], the “Corrector Assay A % activity” value is on record as “+++ (+++ is >60%)” and the EC50 is less than 1000 nM.
For `CC(C)(C)c1cccc(C2CC[C@@H]3CN(c4nc(C(C)(C)C)ccc4C(=O)NS(=O)(=O)c4cccc(n4)N2)C(C)(C)C3)n1` (single isomer, unassigned) [Compound 179] the same measures were “++ (++ is 30-60%)” and less than 1000 nM.
Regarding `CC(C)(C)c1ccc2c(n1)N1C[C@@H](CC[C@H](c3cccc(C#N)n3)Nc3cccc(n3)S(=O)(=O)NC2=O)CC1(C)C` [Compound 211, 6-[(14S,17R)-8-tert-Butyl-12,12-dimethyl-2,2,4-trioxo-2λ^6-thia-3,9,11,18,23-pentaazatetracyclo[17.3.1.111,14.05,10]tetracosa-1(22),5,7,9,19(23),20-hexaen-17-yl]pyridine-2-carbonitrile], the “Corrector Assay A % activity” value is given as “+++ (+++ is >60%)” and the EC50 was less than 1000 nM.
Take `CC(C)(C)c1ccc2c(n1)N1C[C@@H](CCC(c3cccnc3)Nc3cccc(n3)S(=O)(=O)NC2=O)CC1(C)C` (single isomer, unassigned) [Compound 283]: the “Corrector Assay A % activity” value was “+++ (+++ is >60%)” and the EC50 is less than 1000 nM.
On the same counts, the results for `CC(C)(C)c1ccc2c(n1)N1C[C@@H](CCC(C(C)(C)O)Nc3cccc(n3)S(=O)(=O)NC2=O)CC1(C)C` (stereo partly drawn) [Compound 12, (14S)-8-tert-Butyl-17-(2-hydroxypropan-2-yl)-12,12-dimethyl-2λ^6-thia-3,9,11,18,23-pentaazatetracyclo[17.3.1.111,14.05,10]tetracosa-1(23),5(10),6,8,19,21-hexaene-2,2,4-trione] are “+++ (+++ is >60%)” and less than 1000 nM.
For `CC(C)(C)c1ccc2c(n1)N1C[C@@H](CC[C@@H](c3cccc(C#N)n3)Nc3cccc(n3)S(=O)(=O)NC2=O)CC1(C)C` [Compound 210] the same measures were “++ (++ is 30-60%)” and less than 1000 nM.
For `CC1(C)C[C@@H]2CC[C@H](c3ccccn3)Nc3cccc(n3)S(=O)(=O)NC(=O)c3ccc(-c4c(F)cccc4Cl)nc3N1C2` [Compound 343] the same measures were “+++ (+++ is >60%)” and less than 1000 nM.
With `CC(C)(C)c1ccc(C2CC[C@@H]3CN(c4nc(C(C)(C)C)ccc4C(=O)NS(=O)(=O)c4cccc(n4)N2)C(C)(C)C3)nc1` (single isomer, unassigned) [Compound 186], the “Corrector Assay A % activity” value is “+++ (+++ is >60%)” and the EC50 was less than 1000 nM.
On to `CC(C)(C)c1cccc(C2CC[C@@H]3CN(c4nc(C(C)(C)C)ccc4C(=O)NS(=O)(=O)c4cccc(n4)N2)C(C)(C)C3)n1` (single isomer, unassigned) [Compound 178], for which the “Corrector Assay A % activity” value is “+ (+ is <30%)” and the EC50 is less than 1000 nM.
For the compound `CC(C)(C)c1ccc2c(n1)N1C[C@@H](CC[C@@H](c3cccc(C4CNC4)n3)Nc3cccc(n3)S(=O)(=O)NC2=O)CC1(C)C` [Compound 151], the “Corrector Assay A % activity” value was “++ (++ is 30-60%)” and the EC50 is less than 1000 nM.
For the compound `CC(C)(C)c1ccc2c(n1)N1C[C@@H](CCC(c3ccc(N4CCCCC4)cn3)Nc3cccc(n3)S(=O)(=O)NC2=O)CC1(C)C` (stereo partly drawn) [Compound 185], the “Corrector Assay A % activity” value was “++ (++ is 30-60%)” and the EC50 was less than 1000 nM.
For `CC(C)N1CCN(c2ccc3c(n2)N2C[C@@H](CC[C@H](c4ccccn4)Nc4cccc(n4)S(=O)(=O)NC3=O)CC2(C)C)C1=O` [Compound 332], the “Corrector Assay A % activity” value was “+++ (+++ is >60%)” and the EC50 fell in the range of 1000 to 3000 nM.
